Data as given in patent US8778626B2, “Clickable cross-linker” (California Institute of Technology, priority 2010, dated 2014).

How the values were obtained:
ubiquitin = target: T1, ubiquitin (Homo sapiens, UniProt P0CG47); assay: circular dichroism spectrometry of CXL-1 cross-linked ubiquitin; settings: CD spectra, 0.25 or 1 mM CXL-1, t=0 and t=30 min, 1×PBS pH 7.4 (FIG. 10)
T1 construct: cross-linking of ubiquitin (PDB ID: 1 UBQ)
Protocol: The CXL-1 cross-linked ubiquitin samples were analyzed by an Aviv Model 62A DS Circular Dichroism (CD) Spectrometer (Lakewood, N.J.) at room temperature. The critical instrumental parameters included: acquisition range=200 to 300 nm, step size=1.00 nm, averaging time=5 s, bandwidth=1 nm, and path length=1 mm. One scan was recorded for each spectrum. For CXL-1 cross-linked samples, 1 to 4 μL of 50 mM CXL-1 stock solution in DMSO was added to 196 to 199 μL of 0.1 mg/mL ubiquitin in 1×PBS pH 7.4 to yield a final concentration of 0.25 to 1 mM CXL-1 in 200 CD spectra were collected upon addition of CXL-1 (t=0) and after 30 min of cross-linking reaction (t=0.5 h).
Circular dichroism (CD) spectrometry is a useful analytical technique for quick investigation of secondary structure, folding, and binding properties of peptides and proteins (Greenfield, N. J. Nat. Protocols 2007, 1, 2876). […] The CD spectra of native ubiquitin were previously recorded, yielding the secondary structure analysis of 6% α-helix, 10% β-sheet and 84% random structures, which can be observed as increasingly negative ellipticity over the range of 225 to 240 nm (Jenson et al., Biochim. Biophys. Acta 1980, 624, 378, the entire contents of which are herein incorporated by reference). […]

Cul1 protein = target: T2, Cul1 protein (Homo sapiens, UniProt Q13616); assay: in vivo cross-linking of HEK 293 cells followed by Western blot analysis of Cul1; assay type: cell-based; settings: inferred from cross-linking of cytoplasmic Cul1 in HEK 293 cells
T2 construct: expressed in transfected cells
T2 sequence (Q13616 whole entry): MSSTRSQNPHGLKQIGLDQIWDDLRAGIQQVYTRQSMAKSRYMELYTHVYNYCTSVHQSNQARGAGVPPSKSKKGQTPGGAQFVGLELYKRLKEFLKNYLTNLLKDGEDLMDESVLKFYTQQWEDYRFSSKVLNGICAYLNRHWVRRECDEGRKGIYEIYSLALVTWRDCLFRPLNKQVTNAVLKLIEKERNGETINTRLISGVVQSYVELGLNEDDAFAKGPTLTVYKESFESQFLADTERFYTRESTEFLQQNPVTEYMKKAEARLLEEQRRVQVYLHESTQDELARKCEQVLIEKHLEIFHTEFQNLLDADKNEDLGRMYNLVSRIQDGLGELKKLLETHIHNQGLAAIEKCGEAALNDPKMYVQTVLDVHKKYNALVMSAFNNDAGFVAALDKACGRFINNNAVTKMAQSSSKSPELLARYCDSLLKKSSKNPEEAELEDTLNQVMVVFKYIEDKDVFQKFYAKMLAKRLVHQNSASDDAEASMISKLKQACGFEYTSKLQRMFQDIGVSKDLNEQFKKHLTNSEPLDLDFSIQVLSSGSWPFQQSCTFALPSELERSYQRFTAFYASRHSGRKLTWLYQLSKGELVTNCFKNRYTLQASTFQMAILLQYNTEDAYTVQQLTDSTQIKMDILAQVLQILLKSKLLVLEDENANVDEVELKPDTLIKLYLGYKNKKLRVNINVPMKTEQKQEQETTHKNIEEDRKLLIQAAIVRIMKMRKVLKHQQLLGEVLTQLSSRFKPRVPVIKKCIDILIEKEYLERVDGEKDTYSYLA
Protocol: (§1) To test the cell permeability and water solubility of CXL-1, in vivo cross-linking of HEK 293 cells, followed by Western blot analysis of the Cul1 protein were performed. The in vivo cross-linking of HEK 293 cells by CXL-1, followed by Western blot analysis was carried out as described previously with minor modifications (Lee et al., Mol. Cell. Proteomics 2010, Electronic preprint. doi:10.1074/mcp.M110.006460.) Briefly, to facilitate the purification of Cul1, a HEK 293-derived stable cell line capable of expressing tagged Cul1 upon tetracycline treatment was constructed using the T-REx™ (Tetracycline-regulated Expression) system (Invitrogen, Carlsbad, Calif.). The tandem tag used here consists of a hexa-histidine sequence and a biotinylation signal sequence (Tagwerker et al., 2006). Biotinylation is catalyzed by endogenous biotin ligases, which are present in all eukaryotic cells (Cronan J. Biol. Chem. 1990, 265, 10327). A specific lysine residue in the biotinylation signal sequence functions as an acceptor site for biotin in vivo (Kulman et al., Protein Expr. Purif. 2007, 52, 320).
Tagged Cul1 was induced with 1.0 μg/mL tetracycline for 4 hours in experiments for in vivo cross-linking. Twenty four hours after induction, cells were subject to in vivo cross-linking by treating 0, 0.1, 0.2, 0.5, and 1.0 mM of CXL-1, respectively, and incubated for 1 h at 37° C. […]

HEK 293 cells = assay: cytotoxicity of CXL-1 on cells during in vivo cross-linking; assay type: cell-based
Protocol: Tagged Cul1 was induced with 1.0 μg/mL tetracycline for 4 hours in experiments for in vivo cross-linking. Twenty four hours after induction, cells were subject to in vivo cross-linking by treating 0, 0.1, 0.2, 0.5, and 1.0 mM of CXL-1, respectively, and incubated for 1 h at 37° C. After the completion of the cross-linking, cells were lysed for 30 minutes at 4° C. with the lysis buffer (0.050 M HEPES, pH 7.5, 0.0050 M Mg(OAc)2, 0.070 M KOAc, 10% glycerol, and 0.4% IGEPAL CA630). The lysate was centrifuged at 16,600 g at 4° C. for 20 min and the supernatant was used for Western blot analysis.
Cul1 is a ubiquitin ligase that attaches a ubiquitin chain on target substrates for proteasome-catalyzed degradation (Deshaies, R. J. Annu. Rev. Cell Dev. Biol. 1999, 15, 435). Cul1 is a prototype of the cullin ligase family, and constitutes modular ligase complexes with other binding partners. […] Secondly, if cytoplasmic Cul1 protein is cross-linked by CXL-1, the postulated cell permeability and water solubility from the design of CXL-1 can be verified. FIG. 11 depicts the Western blot analysis of cross-linked Cul1 samples acquired from in vivo cross-linking of HEK 293 cells. From the observation of the higher molecular weight band, Cul1 is cross-linked by CXL-1 in a range of approximately 0.5 to 1.0 mM. […] Accordingly, CXL-1 is compatible with the cellular environment for in vivo cross-linking.

[1] = water solubility of CXL-1 verified by in vivo cross-linking; assay type: physicochemical; settings: PBS; inferred from in vivo cross-linking of Cul1
Protocol: as §1
Cul1 is a ubiquitin ligase that attaches a ubiquitin chain on target substrates for proteasome-catalyzed degradation (Deshaies, R. J. Annu. Rev. Cell Dev. Biol. 1999, 15, 435). Cul1 is a prototype of the cullin ligase family, and constitutes modular ligase complexes with other binding partners. […]

contribution of CXL-1 on ubiquitin secondary structure (ubiquitin): minimal or undetectable | cell permeability (Cul1 protein): cell-permeable | solubility [1]: soluble in PBS
Substance: NHS-activated 2,2′-(hex-5-ynylazanediyl)diacetic acid [CXL-1]
cytotoxic activity on cells (HEK 293 cells; CXL-1 in working concentration ranges): no or minimal cytotoxic activity | cell toxicity (HEK 293 cells; treatment of CXL-1 up to 1 mM, HEK 293 cells, 1 h at 37° C.): did not induce any significant cell toxicity
